Data taken from the RepoRT retention time repository (doi:10.1093/pcp/pcn183).
Counter-ions that a name gives are not always drawn.

Assay: RP, Waters ACQUITY UPLC BEH C18, 38 °C, 0.24 mL/min; A: water + 0.1% formic acid, pH 3; B: acetonitrile + 0.1% formic acid, pH 3; gradient (min/%B) 0/0 0.25/0 0.4/9 0.8/17 1.9/100 2.1/100 2.11/0 3/0
Details: stereoisomer not certain

OCC1OC(OCC2OC(O)C(O)C(O)C2O)C(O)C(O)C1O (stereo not given)
LC retention time: 0.19 min

CC1OC(OCC2OC(Oc3c(-c4ccccc4O)oc4cc(O)cc(O)c4c3=O)C(O)C(O)C2O)C(O)C(O)C1O (stereo not given) [Datiscin]
LC retention time: 1.4 min

O=C(O)C(O)Cc1ccccc1 (racemic) [DL-3-Phenyllactic acid]
LC retention time: 1.42 min

CC1OC(Oc2c(-c3ccc(O)c(O)c3)oc3cc(O)cc(O)c3c2=O)C(O)C(O)C1O (stereo not given) [Quercitrin]
LC retention time: 1.46 min

O=c1c(OC2OC(CO)C(O)C(O)C2O)c(-c2ccc(O)c(O)c2)oc2cc(O)cc(O)c12 (stereo not given) [Hyperoside]
LC retention time: 1.4 min

NCC(O)c1ccc(O)c(O)c1 (single isomer, unassigned; (-)) [(-)-Norepinephrine]
LC retention time: 0.19 min

COc1cc(CNC(=O)CCCCC=CC(C)C)ccc1O [Capsaicin]
LC retention time: 1.93 min

NCC(O)CCC(N)C(=O)O (racemic) [DL-5-Hydroxylysine  hydrochloride]
LC retention time: 0.14 min

COc1cc(C=CCO)cc(OC)c1O [Sinapyl alcohol]
LC retention time: 2.13 min

CN1CCCC1c1cccnc1 (racemic) [(-)-Nicotine ( solution 1.0 mg/mL+/-5% in methanol)]
LC retention time: 0.47 min

O=C(O)C[C@@H]1CCCN1 [L-beta-homoproline-HCl]
LC retention time: 0.25 min

O=S(=O)(O)Oc1c[nH]c2ccccc12 [3-Indoxylsulfate potassium salt]
LC retention time: 1.24 min

NC(CO)CC(=O)O [L-beta-homoserine [(R)-3-Amino-4-hydroxy-butyric acid (+)]]
LC retention time: 0.16 min

CCCCCCCCCCCCCC=CC(O)C(N)COC1OC(CO)C(O)C(O)C1O [D-Glucosyl-beta1-1'-D-erythoro-Sphingosine]
LC retention time: 1.84 min

O=[N+]([O-])c1ccc(OP(=O)(O)O)cc1 [4-Nitrophenyl phosphate disodium salt hexahydrate]
LC retention time: 0.92 min

CCCCCCC(=O)O [n-heptanoic acid]
LC retention time: 0.29 min

CC(=O)NCCCCN [N-acetyl putrescine hydrochloride]
LC retention time: 0.23 min

OCC1OC(Oc2cc3c(OC4OC(CO)C(O)C(O)C4O)cc(O)cc3[o+]c2-c2ccc(O)c(O)c2)C(O)C(O)C1O (stereo not given) [cyanidin-3,5-di-O-glucoside chloride]
LC retention time: 1.11 min

NCCC[C@H](N)C(=O)O [L-Ornithine monohydrochloride]
LC retention time: 0.14 min

CC(O)C(=O)SCC(NC(=O)CCC(N)C(=O)O)C(=O)NCC(=O)O (stereo not given) [S-Lactoylglutathione]
LC retention time: 1.06 min

C[N+](C)(C)CC(=O)[O-] [Betaine]
LC retention time: 0.17 min

CC(CCC(=O)O)C(=O)O (stereo not given) [2-Methylglutaric Acid]
LC retention time: 1.16 min

NCCS(=O)O [Hypotaurine]
LC retention time: 0.16 min

NC(CCSCC(N)C(=O)O)C(=O)O (stereo not drawn) [L(+)-Cystathionine]
LC retention time: 0.16 min

CCCCc1ccc(C(=O)O)nc1 [Fusaric acid]
LC retention time: 1.37 min

CCCCCCCCCCCCCCCC(O)C(N)CO [D-erythro-Dihydrosphingosine]
LC retention time: 1.98 min

O=c1ccn(C2CC(O)C(COP(=O)(O)O)O2)c(=O)[nH]1 (stereo not given) [2'-Deoxyuridine-5'-monophosphate disodium salt]
LC retention time: 0.4 min

CS(=O)(=O)CCC(N)C(=O)O [L-Methionine sulfone]
LC retention time: 0.18 min

CC1OC(OC2C(Oc3cc(O)c4c(=O)c(O)c(-c5ccc(O)cc5)oc4c3)OC(CO)C(O)C2O)C(O)C(O)C1O (stereo not given) [kaempferol-7-O-neohesperidoside]
LC retention time: 1.44 min

O=c1ccn(C2OC(COP(=O)(O)O)C(O)C2O)c(=O)[nH]1 (stereo not given) [Uridine-5'-monophosphate]
LC retention time: 0.26 min

C[C@@H](N)P(=O)(O)O [(S)-(+)-1-Aminoethylphosphonic acid]
LC retention time: 0.16 min

N[C@@H](Cc1ccccc1)C(=O)O [L-(-)-Phenylalanine]
LC retention time: 1.09 min

CC(CO)CCNc1ncnc2nc[nH]c12 (racemic) [DL-Dihydrozeatin]
LC retention time: 1.11 min

OC1COC(OC2COC(O)C(O)C2O)C(O)C1O (stereo not given) [Xylobiose]
LC retention time: 0.18 min

NCCCC(=O)NC(Cc1cnc[nH]1)C(=O)O [L-Homocarnosine]
LC retention time: 0.16 min

Nc1c(O)cccc1C(=O)O [3-Hydroxyanthranilic acid]
LC retention time: 1.13 min

O=C(CCc1ccc(O)cc1)c1c(O)cc(O)cc1OC1OC(CO)C(O)C(O)C1O (stereo not given) [Phloridzin]
LC retention time: 1.49 min

C[N+](C)(C)CC=O [Betaine aldehyde chloride]
LC retention time: 0.16 min

NC1(C(=O)O)CCCC1 [1-Amino-1-cyclopentanecarboxylic acid]
LC retention time: 0.32 min

O=C(O)C(O)c1cccc(O)c1 (stereo not given) [3-Hydroxymandelic acid]
LC retention time: 1 min

CCCCCC1CCC(=O)O1 (stereo not given) [4-Nonanolide]
LC retention time: 1.87 min

CC(N)(Cc1cnc[nH]1)C(=O)O (racemic) [alpha-Methyl-DL-histidine dihydrochloride]
LC retention time: 0.16 min

O=C1CC(c2ccc(O)cc2)Oc2cc(O)cc(O)c21 (stereo not given) [naringenin]
LC retention time: 1.67 min

NCCCC[C@H](N)C(=O)O [L-(+)-Lysine]
LC retention time: 0.15 min

CC(=O)N[C@@H]1C(O)O[C@H](CO)[C@@H](O)[C@@H]1O (stereo partly drawn) [N-acetyl-D-mannosamine]
LC retention time: 0.18 min

C[n+]1cccc(C(N)=O)c1 [1-Methylnicotinamide chloride]
LC retention time: 0.18 min

Nc1ncnc2c1ncn2C1OC(COP(=O)(O)O)C(O)C1O (stereo not given) [Adenosine-5'-monophosphate sodium salt]
LC retention time: 0.39 min

CC(C)=CCNc1ncnc2nc[nH]c12 [6-(gamma,gamma-Dimethylallylamino)purine]
LC retention time: 1.32 min

O=P(O)(O)O[C@H]1O[C@H](CO)[C@H](O)[C@H](O)[C@H]1O [alpha-D-Galactose-1-phosphate dipotassium salt pentahydrate]
LC retention time: 0.16 min

CC(O)(CC(=O)O)CC(=O)O [3-Hydroxy-3-methylglutarate]
LC retention time: 0.68 min

OCC1OC(Oc2cc(O)cc3[o+]c(-c4ccc(O)c(O)c4)c(OC4OC(CO)C(O)C(O)C4OC4OCC(O)C(O)C4O)cc23)C(O)C(O)C1O (stereo not given)
LC retention time: 1.12 min

CSC[C@H](N)C(=O)O [S-Methyl-L-cysteine]
LC retention time: 0.2 min

O=c1ccc2ccc(O)c(O)c2o1 [Daphnetin]
LC retention time: 1.34 min

O=C(CCc1ccccc1)c1c(O)cc(O)cc1OC1OC(CO)C(O)C(O)C1O (stereo not given) [4-deoxyphloridzin]
LC retention time: 1.5 min

N[C@@H](CSCC(=O)O)C(=O)O [S-Carboxymethyl-L-cysteine]
LC retention time: 0.2 min

COc1cc(CNC(=O)CCCCCCC(C)C)ccc1O [Dihydrocapsaicin]
LC retention time: 2 min

O=P(O)(O)OCC(O)CO (racemic) [rac-Glycerol 3-phosphoate disodium salt hexahydrate]
LC retention time: 0.16 min

C[N+](C)(C)CCOP(=O)([O-])OCC(O)CO (stereo not given) [sn-Glycero-3-phosphocholine 1:1 cadmium chloride adduct]
LC retention time: 0.17 min

O=c1c(-c2ccc(O)cc2)coc2cc(OC3OC(CO)C(O)C(O)C3O)ccc12 (stereo not given) [Daidzin]
LC retention time: 1.34 min

COc1cc(-c2[o+]c3cc(O)cc(OC4OC(CO)C(O)C(O)C4O)c3cc2OC2OC(CO)C(O)C(O)C2O)cc(OC)c1O (stereo not given) [Malvin chloride]
LC retention time: 1.15 min

Cc1cn(C2CC(O)C(CO)O2)c(=O)[nH]c1=O (stereo not given) [Thymidine]
LC retention time: 1.11 min

NCCCNCCCCNCCCN [Spermine]
LC retention time: 0.14 min

OCC1OC(OC2C(O)C(CO)OC2(CO)OC2OC(CO)C(O)C(O)C2O)C(O)C(O)C1O [D-(+)-Melezitose hydrate]
LC retention time: 0.21 min

O=C(O)[C@@H]1C[C@@H](O)CN1 [trans-4-Hydroxy-L-proline]
LC retention time: 0.17 min

O=c1c(O[C@@H]2O[C@H](CO)[C@@H](O)[C@H](O)[C@H]2O)c(-c2ccc(O[C@@H]3O[C@H](CO)[C@@H](O)[C@H](O)[C@H]3O)c(O)c2)oc2cc(O)cc(O)c12 [Quercetin-3,4'-O-di-beta-glucopyranoside]
LC retention time: 1.32 min

O=c1cc(-c2ccc(O)cc2)oc2c(C3OC(CO)C(O)C(O)C3O)c(O)cc(O)c12 (stereo not given) [Vitexin]
LC retention time: 1.39 min

NC(CCCC(N)C(=O)O)C(=O)O (racemic) [DL-alpha,epsilon-Diaminopimelic acid]
LC retention time: 0.15 min

Nc1ccccc1C(=O)O [Anthranilic acid]
LC retention time: 1.39 min

O=C(O)c1ccccc1O [Salicylic Acid]
LC retention time: 1.55 min

NC1(C(=O)O)CC1 [1-Aminocyclopropane-1-carboxylic acid]
LC retention time: 0.18 min

O=C1OC2C(O)C(O)OC2C1O [D-Glucurono-6,3-lactone]
LC retention time: 0.19 min

Cc1ncc(C[n+]2csc(CCOP(=O)(O)O)c2C)c(N)n1 [Thiamine monophosphate chloride dihydrate]
LC retention time: 0.19 min

Nc1ccn(C2OC(CO)C(O)C2O)c(=O)n1 (stereo not given) [Cytidine,cell culture tested]
LC retention time: 0.34 min

CC1OC(OCC2OC(Oc3c(-c4ccc(O)cc4)oc4cc(O)cc(O)c4c3=O)C(O)C(O)C2O)C(O)C(O)C1O (stereo not given) [kaempferol-3-O-rutinoside]
LC retention time: 1.42 min

Cc1cc2nc3c(=O)[nH]c(=O)nc-3n(CC(O)C(O)C(O)COP(=O)(O)O)c2cc1C (stereo not given)
LC retention time: 1.19 min

NC(=O)CC[C@H](N)C(=O)O [L-Glutamine]
LC retention time: 0.17 min

CC(N)(CO)C(=O)O (racemic) [alpha-Methyl-DL-serine]
LC retention time: 0.17 min

Oc1cc(O)c2cc(OC3OCC(O)C(O)C3O)c(-c3ccc(O)c(O)c3)[o+]c2c1 (stereo not drawn) [Cyanidin-3-O-alpha-arabinopyranoside]
LC retention time: 1.23 min

CC(CN)C(=O)O (racemic) [DL-3-Aminoisobutyric acid]
LC retention time: 0.19 min

O=C(O)CCl [Chloroacetic acid]
LC retention time: 0.36 min
